The subject of experiment [1] is gut microbiome. The experiment in a line: Non pH-controlled anaerobic faecal cultures: gas production. The conditions noted are these: 6 donors, FIG. 1A. Type of experiment: cell-based. The protocol: Non pH-controlled, anaerobic, faecal cultures were investigated to evaluate the rate of gas production and cumulative gas production over 24 h in the presence of each test substrate.
(§1) All carbohydrates were tested in parallel, using the same faecal sample from a healthy donor. Fermentations were repeated using the faecal samples of each of 6 donors. Faeces in the absence of test substrate were used as the negative control in each run.

Experiment [2] concerns gut microbiome. The experiment is described as follows: pH-controlled anaerobic faecal cultures: organic acid production. Type of experiment: cell-based. As to conditions: FIG. 3C. The protocol:
pH-controlled, anaerobic, faecal cultures were carried out to evaluate the impact of each test carbohydrate on gut microbiome composition and activity (organic acid production). The test carbohydrates were as follows: Inulin, Fructooligosaccharides (FOS), Xylooligosaccharides (XOS), gentiooligosaccharides (GeOS) and cellobiose.
as §1

SMILES strings stand for the structures.

On to `O=C[C@H](O)[C@@H](O)[C@H](O[C@@H]1O[C@H](CO)[C@@H](O)[C@H](O)[C@H]1O)[C@H](O)CO` [Cellobiose, cellobiose], for which, in the experiment with gut microbiome [1], the “rate of gas production” value is recorded as “significantly higher compared to all test substrates”. For the same compound, in the experiment on gut microbiome [2], the “lactate production / accumulation” value was “high levels”.
